Experimental data: PubChem BioAssay (NCI)
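Growth conditions: 96-well plates. Treatment: test compound, 48 hours, 5 concentrations. Analysis: linear interpolation between bracketing concentrations; unreached endpoints set to highest concentration. Abbreviation: GI50, concentration required for 50% inhibition of growth. TGI: concentration producing complete growth inhibition.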

What was measured:
Test in all cases: NCI tumour cell line growth inhibition, 48 h
786-0 renal = test system: 786-0 renal
A549 NSCLC = test system: A549 NSCLC
HCC-2998 colon = test system: HCC-2998 colon
MCF7 breast = test system: MCF7 breast
MDA-MB-231 breast = test system: MDA-MB-231 breast
NCI/ADR-RES ovarian = test system: NCI/ADR-RES ovarian
SK-OV-3 ovarian = test system: SK-OV-3 ovarian
TK-10 renal = test system: TK-10 renal
U251 CNS = test system: U251 CNS
SK-MEL-5 melanoma = test system: SK-MEL-5 melanoma
NCI-H460 lung = test system: NCI-H460 lung

| Structure (SMILES) | TGI (786-0 renal) | TGI (A549 NSCLC) | TGI (HCC-2998 colon) | TGI (MCF7 breast) | TGI (MDA-MB-231 breast) | TGI (NCI/ADR-RES ovarian) | TGI (SK-OV-3 ovarian) | TGI (TK-10 renal) | TGI (U251 CNS) | TGI (SK-MEL-5 melanoma) | TGI (NCI-H460 lung) | GI50 (A549 NSCLC) | GI50 (HCC-2998 colon) | GI50 (MCF7 breast) | GI50 (MDA-MB-231 breast) | GI50 (NCI-H460 lung) | GI50 (NCI/ADR-RES ovarian) | GI50 (SK-MEL-5 melanoma) | GI50 (TK-10 renal) | GI50 (U251 CNS) |
| --- | --- | --- | --- | --- | --- | --- | --- | --- | --- | --- | --- | --- | --- | --- | --- | --- | --- | --- | --- | --- |
| COc1ccc2c(c1)CCN1CCc3cc(OC)c(OC)cc3CC21 (stereo unspecified) | > 100 µM | > 100 µM | > 100 µM | > 100 µM | > 100 µM | > 100 µM | > 100 µM | > 100 µM | > 100 µM |  |  |  |  |  |  |  |  |  |  |  |
| O=c1onc2c3ccccc3ncn12 | > 100 µM | > 100 µM | > 100 µM | > 100 µM | > 100 µM | > 100 µM | > 100 µM | > 100 µM | > 100 µM | > 100 µM |  |  |  |  |  |  |  |  |  |  |
| Cc1n[nH]c(=O)n1/N=C/c1ccc([N+](=O)[O-])o1 | 36.3 µM | 35.7 µM | 40.7 µM | > 100 µM | 74.9 µM | 70.3 µM | > 100 µM | 36.8 µM | > 53.7 µM | 12.1 µM | 49.4 µM |  |  |  |  |  |  |  |  |  |
| CC(=O)OCC1OC(n2c(=O)[nH]c(=O)c3sccc32)C(Br)C1OC(C)=O (stereo unspecified) | > 100 µM | > 100 µM | > 100 µM | > 100 µM | > 100 µM | > 100 µM |  | > 100 µM | > 100 µM | > 100 µM | > 100 µM |  |  |  |  |  |  |  |  |  |
| CC(C)[C@@H]1ON1C(C)c1ccccc1 (stereo partly specified) | > 100 µM | > 100 µM | > 100 µM | > 100 µM | > 100 µM | > 100 µM | > 100 µM | > 100 µM | > 100 µM | > 100 µM | > 100 µM |  |  |  |  |  |  |  |  |  |
| CSCCC(NC(=O)Cc1ccc(C(=O)c2ccccc2)cc1)C(=O)O (stereo unspecified) | > 100 µM | > 100 µM | > 100 µM | > 100 µM | > 100 µM | > 100 µM | > 100 µM | > 100 µM | > 100 µM | > 100 µM | > 100 µM |  |  |  |  |  |  |  |  |  |
| O[C@H]1[C@H](O)[C@@H](O)[C@@]2(O)C[C@@H](O)[C@@H]1N2 | > 100 µM | > 100 µM | > 100 µM | > 100 µM | > 100 µM | > 100 µM | > 100 µM | > 100 µM | > 100 µM | > 100 µM | > 100 µM |  |  |  |  |  |  |  |  |  |
| COc1ccc(C(=O)c2[nH]c(Nc3ccc(Cl)cc3)c(C(=S)Nc3ccccc3)c2N)cc1 | > 100 µM | > 100 µM | > 100 µM | > 100 µM | > 100 µM | > 100 µM | > 100 µM | > 100 µM |  | > 100 µM | > 100 µM |  |  |  |  |  |  |  |  |  |
| CC(C)(CC(O)C#N)/[N+]([O-])=[N+](\[O-])C(C)(C)CC(O)C#N (stereo unspecified) | 47.5 µM | > 100 µM | 34.2 µM | 65.5 µM | 62.8 µM | > 100 µM | > 100 µM | 96 µM | > 100 µM | > 100 µM | > 100 µM |  |  |  |  |  |  |  |  |  |
| CCOc1cc(NC(C)=O)ccc1C(=O)NN1C(=O)C(Cl)C1c1ccco1 (stereo unspecified) | 30.8 µM | 38.8 µM | 29.5 µM | 26.8 µM | 31.1 µM | > 100 µM | 38.2 µM | 31.3 µM |  | 27.9 µM | 35.1 µM |  |  |  |  |  |  |  |  |  |
| CC1OC(O[C@H]2/C=C/C=C/C=C/C=C/C=C/C=C/C=C/[C@H](C)[C@@H](O)[C@@H](C)[C@H](C)OC(=O)CC(O)CC(O)CCC(O)C(O)CC(O)C[C@]3(O)C[C@H](O)C(C(=O)O)C(C2)O3)C(O)[C@H](N)C1O (stereo partly specified) |  | 3.11 µM | 18.7 µM | 19.7 µM | 15.7 µM | 5.16 µM |  | 5.31 µM | 3.79 µM | 12.8 µM | 4.84 µM | 1.67 µM | 5.36 µM | 5.02 µM | 4.24 µM | 2.14 µM | 2.1 µM | 3.51 µM | 2.66 µM | 1.88 µM |
| COc1cc([C@@H]2c3cc(O)c(OC)cc3C=C(C(N)=O)[C@H]2C(N)=O)ccc1O | > 100 µM | > 100 µM | > 100 µM | > 100 µM | > 100 µM | > 100 µM |  |  | > 100 µM | > 100 µM | > 100 µM |  |  |  |  |  |  |  |  |  |
| O=[As](O)(O)c1ccc(N=Nc2ccc(O)cc2)cc1 | > 100 µM | > 100 µM |  | > 100 µM | > 100 µM | > 100 µM | > 100 µM | > 100 µM | > 100 µM | > 100 µM | > 100 µM |  |  |  |  |  |  |  |  |  |
| CCOc1ccc(-n2nnc3c(N)nc(N)nc32)cc1 | > 100 µM | > 100 µM |  | > 100 µM | > 100 µM | > 100 µM | > 100 µM | > 100 µM | > 100 µM | > 100 µM | > 100 µM |  |  |  |  |  |  |  |  |  |
| COc1ccc2oc(=N)c(C(=O)Nc3ccccn3)cc2c1 | > 100 µM | > 100 µM | > 100 µM | > 100 µM | > 100 µM | > 100 µM | > 100 µM |  | > 100 µM | > 100 µM | > 100 µM |  |  |  |  |  |  |  |  |  |
| CC(C)=C/C=C1/CS(=O)(=O)C=C1C | > 100 µM | > 100 µM | > 100 µM | > 100 µM | > 100 µM | > 100 µM | > 100 µM | > 100 µM | > 100 µM | > 100 µM |  |  |  |  |  |  |  |  |  |  |
| CC1OC(OC2C(OC(=O)[C@@H]3CC(C)(C)C[C@H]4C5=CC[C@@H]6[C@@]7(C)C[C@H](O)[C@H](OC8OC(CO)C(O)C(O)C8O)[C@@](C)(CO)[C@@H]7[C@H](O)C[C@@]6(C)[C@]5(C)CC[C@@]34C)OCC(O)C2O)C(O)C(O)C1O (stereo partly specified) | > 7.5 µM |  | > 7.5 µM | > 7.5 µM | > 7.5 µM | > 7.5 µM | > 7.5 µM | > 7.5 µM | > 7.5 µM | > 7.5 µM | > 7.5 µM |  |  |  |  |  |  |  |  |  |
| CCN(CC)CCNCc1cc(Cl)cc2c1OCOC2 |  | > 10 µM | > 10 µM | > 10 µM | > 10 µM | > 10 µM | > 10 µM | > 10 µM | > 10 µM | > 10 µM | > 10 µM |  |  |  |  |  |  |  |  |  |
| Brc1c(C#CCC2CCCCC2)ccc(C#CCC2CCCCC2)c1Br | > 100 µM | > 100 µM | > 100 µM | > 100 µM | > 100 µM | > 100 µM |  | > 100 µM | > 100 µM | > 100 µM | > 100 µM |  |  |  |  |  |  |  |  |  |
